Reference: PMC4289024 (Journal of Medicinal Chemistry, 2014)

Assays:
[1] = system: 293T cells; experiment: Western blot of 293T cells treated with inhibitors; assay type: cell-based, human
[2] = system: 293T cells; settings: 30 min; cited from earlier work

| SMILES | phosphorylation of AKT (pAKT) ([1]; 3 and 16 h of treatment) | phosphorylation of S6 (pS6 levels) ([1]; 3 and 16 h of treatment) | phosphorylation of S6 ([1]; 3 h time point) | phosphorylation of S6 ([1]; 16 h time point) | S6 phosphorylation [2] |
| --- | --- | --- | --- | --- | --- |
| COc1ccc(-c2ccc3c(N4CCOC[C@@H]4C)nc(N4CCOC[C@@H]4C)nc3n2)cc1CO [AZD8055] | decrease in pAKT at T308 and S473 | significant decrease in pS6 levels at both the S235 and S240 sites | – | – | – |
| CCc1cncnc1N1CCN(Cc2nc3ccc(C(F)(F)F)cc3[nH]2)CC1 [PF-4708671] | no effect on the phosphorylation of AKT | – | modest decrease in phosphorylation of S6 | returned to near basal levels | significant reduction in S6 phosphorylation |
